The values below come from patent EP4417607A1, “HETEROCYCLIC COMPOUND AS SOS1 INHIBITOR AND USES THEREOF” (Nanjing Zaiming Pharmaceutical Co., Ltd., priority 2021, dated 2023).

This assay deals with T1, KRAS G12D::SOS1 binding (Homo sapiens, UniProt Q07889).
T1 construct: purchased Cisbio 63ADK000CB21PEH
T1 sequence (Q07889 1-1333): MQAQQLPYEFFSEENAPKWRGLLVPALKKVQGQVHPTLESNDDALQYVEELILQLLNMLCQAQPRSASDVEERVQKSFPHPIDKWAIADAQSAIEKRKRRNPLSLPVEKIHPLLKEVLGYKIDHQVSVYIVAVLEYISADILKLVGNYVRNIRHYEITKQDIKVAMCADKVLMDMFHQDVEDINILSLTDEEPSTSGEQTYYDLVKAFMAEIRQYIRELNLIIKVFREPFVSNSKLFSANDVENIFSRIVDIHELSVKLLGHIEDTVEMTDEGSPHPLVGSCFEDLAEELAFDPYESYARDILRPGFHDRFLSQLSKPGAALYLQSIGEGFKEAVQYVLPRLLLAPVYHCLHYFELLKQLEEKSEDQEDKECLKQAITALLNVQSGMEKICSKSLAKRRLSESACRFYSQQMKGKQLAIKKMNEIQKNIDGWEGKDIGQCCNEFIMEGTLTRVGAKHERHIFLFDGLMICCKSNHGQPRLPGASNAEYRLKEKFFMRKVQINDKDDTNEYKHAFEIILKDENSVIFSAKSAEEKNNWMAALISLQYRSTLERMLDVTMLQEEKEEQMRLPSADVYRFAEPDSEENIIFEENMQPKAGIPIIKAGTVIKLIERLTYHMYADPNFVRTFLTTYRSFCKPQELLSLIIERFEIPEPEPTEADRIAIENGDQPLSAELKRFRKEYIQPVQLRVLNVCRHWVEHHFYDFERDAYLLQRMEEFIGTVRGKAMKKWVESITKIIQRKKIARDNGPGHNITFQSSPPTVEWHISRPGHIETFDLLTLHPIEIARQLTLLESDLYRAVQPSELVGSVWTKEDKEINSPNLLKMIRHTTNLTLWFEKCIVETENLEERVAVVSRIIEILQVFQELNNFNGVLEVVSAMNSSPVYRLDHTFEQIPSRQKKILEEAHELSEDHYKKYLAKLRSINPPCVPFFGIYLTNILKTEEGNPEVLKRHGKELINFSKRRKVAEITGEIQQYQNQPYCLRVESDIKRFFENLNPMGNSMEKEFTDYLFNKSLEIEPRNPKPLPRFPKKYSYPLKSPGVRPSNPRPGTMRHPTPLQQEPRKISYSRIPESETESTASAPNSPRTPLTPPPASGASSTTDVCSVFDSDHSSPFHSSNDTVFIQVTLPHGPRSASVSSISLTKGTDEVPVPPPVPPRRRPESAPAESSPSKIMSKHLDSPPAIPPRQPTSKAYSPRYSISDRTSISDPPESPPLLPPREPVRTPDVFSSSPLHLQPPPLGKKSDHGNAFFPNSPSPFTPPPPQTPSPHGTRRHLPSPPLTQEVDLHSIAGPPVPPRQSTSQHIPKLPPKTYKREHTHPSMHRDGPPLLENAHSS
The assay is described as follows: KRAS G12D::SOS1 binding inhibition (KRAS-G12D/SOS1 binding assay kit, Cisbio). Conditions: GTP 10 µM. The method, then:
The inhibitory effect of the compounds of the present invention on KRAS G12D:: SOS 1 binding was assessed using KRAS-G12D/SOS1 BINDING ASSAY KITS (Cisbio, Cat. No. 63ADK000CB21PEH).
The test compound (10 mM stock solution) was diluted […] to 0.1 mM with 100% DMSO and diluted at a ratio of 1:3 in a 384-well dilution plate for 11 concentrations. 0.1 µL of the gradiently-diluted compound solution was transferred to a 384-well plate using Echo. 2 replicate wells were set for each compound. The solution was centrifuged at 1000 rpm/min for 1 min. 5 µL of 4X KRAS G12D (final concentration 1X) and a GTP solution (final concentration 10 µM, sigma, Cat. No. V900868) were transferred to the 384-well reaction plate. The mixture was centrifuged at 1000 rpm/min for 1 min and incubated at 25 °C for 15 min. 5 µL of a 4X SOS1 solution (final concentration 1X) was transferred to the 384-well reaction plate. The solution was centrifuged at 1000 rpm/min for 1 min and incubated at 25 °C for 45 min. The final concentrations of BAY-293 compound were 10, 3.33, 1.11, 0.37, 0.12, 0.04, 0.014, 0.0046, 0.0015, 0.0005, 0.00017, and 0 µM. The final concentrations of the test compound were 10, 3.33, 1.11, 0.37, 0.12, 0.04, 0.014, 0.0046, 0.0015, 0.0005, 0.00017, and 0 µM. The final concentrations of DMSO were all 0.5%. 10 µL of a 2X assay reagent solution was transferred to the 384-well reaction plate. The solution was centrifuged at 1000 rpm/min for 1 min and incubated at 4 °C for 180 min. An Envision multifunctional microplate reader was used to read at an excitation wavelength of […] and an emission wavelength of 615 nm. The signal intensity of 665/615 ratio was used to characterize the degree of enzyme activity. Data processing: compound IC50 was fitted by Graphpad Prism 8 nonlinear regression equation: Negative control: DMSO
IC50 (half maximal inhibitory concentration) of the compound was obtained using the following nonlinear fitting formula: Y = Bottom + (Top−Bottom)/(1+10^(∧)((LogIC50−X)*HillSlope)) [formula] • X: log value of the concentration of the test compound • Y: inhibition percentage
Bottom is the minimum inhibition percentage, Top is the maximum inhibition percentage, and HillSlope is the Hill slope.
As to `[2H][C@](C)(Nc1nc(C)nc2c(N3CCOCC3)c(=O)n(C3(CF)CC3)cc12)c1cccc(C(F)F)c1F` [Example 55, (R)-4-((1-(3-(difluoromethyl)-2-fluorophenyl)ethyl-1-d)amino)-6-(1-(fluoromethyl)cyclopropyl)-2-methyl-8-morpholinylpyrido[4,3-d]pyrimidine-7(6H)-one], the IC50 was 6.3 nM.

With `Cc1nc(N[C@H](C)c2cccc(C(F)F)c2F)c2cn(C3(CF)CC3)c(=O)c(N3CCOC[C@@H]3C)c2n1` [Example 40, 4-(((R)-1-(3-(difluoromethyl)-2-fluorophenyl)ethyl)amino)-6-(1-(fluoromethyl)cyclopropyl)-2-methyl-8-((S)-3-methylmorpholine)pyrido[4,3-d]pyrimidine-7(6H)-one], the IC50 came out at 3.84 nM.

Compound `[2H]C([2H])([2H])Oc1c(=O)n(C2(CF)CC2)cc2c(N[C@H](C)c3cccc(C(F)F)c3F)nc(C)nc12` [Example 23, (R)-4-((1-(3-(difluoromethyl)-2-fluorophenyl)ethyl)amino)-6-(1-(fluoromethyl)cyclopropyl)-8-(methoxy-d3)-2-methylpyrido[4,3-d]pyrimidine-7(6H)-one] yielded an IC50 of 4.17 nM.

In turn, `Cc1nc(N[C@H](C)c2cccc(C(F)F)c2F)c2cn(C3(CF)CC3)c(=O)c(N3CCOCC3)c2n1` [Example 34, (R)-4-((1-(3-(difluoromethyl)-2-fluorophenyl)ethyl)amino)-6-(1-(fluoromethyl)cyclopropyl)-2-methyl-8-morpholinylpyrido[4,3-d]pyrimidine-7(6H)-one] returned an IC50 of 6.55 nM.

As to `COc1c(=O)n(N2CCOCC2)cc2c(N[C@H](C)c3cccc(C(F)F)c3F)nc(C)nc12` [Example 20, (R)-4-((1-(3-(difluoromethyl)-2-fluorophenyl)ethyl)amino)-8-methoxy-2-methyl-6-morpholinepyrido[4,3-d]pyrimidine-7(6H)-one], the half-inhibitory concentration (IC50) was 7.46 nM.
